Values joined by “and” are separate entries in the source; they are usually repeats but may differ in a detail not shown here. Equal entries are not always repeated. Where two headings read alike, the source gives them in different places.
What was measured:
[1] = system: MES seizures, mice; assay: Maximal electroshock (MES) seizure test; assay type: in vivo; conditions: Mus musculus, ip; for responders at 100 mg/kg: 0.5 h, i.p.; for ED50: at TPE (0.5 h; LTG 1.0 h), 95% confidence intervals in parentheses
[2] = system: 6 Hz (32 mA) seizures, mice; assay: Psychomotor 6 Hz (32 mA) seizure model; assay type: in vivo; conditions: Mus musculus, ip; for responders at 100 mg/kg: 0.5 h, read-out: 6 Hz (32 mA) test, number of mice protected / number of mice tested (converted)
[3] = system: Na+ channel (site 2); assay: Radioligand binding, Na+ channel (site 2); conditions: 10 µM; rat cerebral cortex
Description: (§1) Taking into consideration the structural similarities of molecules described in the current manuscript with their chemical prototypes AS-1 and DK-1, the binding studies toward aforementioned molecular targets were performed commercially for several active substances from each subseries (3, 4, 21, 24, 25, 27, 29, and 30). Furthermore, we also tested two other and well-known targets for AEDs, namely, the Cav2.2 (N-type) calcium channel and gamma-aminobutyric acid (GABA)-A receptor. With the aim of excluding potentially dangerous proarrhythmic properties for each compound, their interaction with the potassium (hERG) channel was also tested.
(§2) Binding studies were carried out commercially in Eurofines Laboratories (Poitiers, France). The functional assays were performed in Eurofins Panlabs Discovery Services Taiwan, Ltd. (New Taipei City, Taiwan). All procedures are described elsewhere (for details, see Table S4 in Supplementary Materials).
(§3) Binding studies were carried out commercially in Eurofines Laboratories (Poitiers, France). The
(§4) functional assays were performed in Eurofins Panlabs Discovery Services Taiwan, Ltd. (New Taipei
(§5) City, Taiwan). All procedures are described elsewhere (Table S4).
Table S4. In vitro binding and functional assays. […]

[4] = target: T1, Cav1.2 channel (Rattus norvegicus, UniProt P22002); assay: Radioligand binding, Cav1.2 channel; design: inhibition: dose or concentration left out as unconfirmed; conditions: for inhibition: rat cerebral cortex, read-out: % Inhibition of Control Specific Binding, Cav1.2 Channel (Antagonist Radioligand)
T1 construct: tissue Eurofins (Poitiers, France), contract assay; host or cells: rat cerebral cortex (own knowledge of the vendor's assay)
Description: as §1, §2, §3, §4, §5
(§6) Table S4. In vitro binding and functional assays.
(§7) GABA-A receptor (α1,β2,γ2)
(§8) Potassium channel (hERG) 14
(§9) Cav1.2 (h) calcium ion channel cell based antagonist calcium flux assay 16,17

[5] = target: T2, Cav2.2 channel (Rattus norvegicus, UniProt Q02294); assay: Radioligand binding, Cav2.2 channel; design: dose or concentration left out as unconfirmed; conditions: rat cerebral cortex; read-out: % Inhibition of Control Specific Binding, Cav2.2 Channel (Antagonist Radioligand)
T2 construct: tissue Eurofins (Poitiers, France), contract assay; host or cells: rat cerebral cortex (own knowledge of the vendor's assay)
Description: as §1, §2, §3, §4, §5, §6, §7, §8, §9

[6] = target: T3, GABA-A receptor (α1,β2,γ2) (Homo sapiens, UniProt P14867+P47870); assay: Radioligand binding, GABA-A receptor; design: dose or concentration left out as unconfirmed; conditions: rat cerebral cortex; read-out: % Inhibition of Control Specific Binding, GABA-A Receptor (α1,β2,γ2) (Agonist Radioligand)
T3 construct: Eurofins (Poitiers, France), contract assay
Description: as §1, §2, §3, §4, §5, §6, §7, §8, §9

[7] = target: T4, Potassium channel (hERG) (Homo sapiens, UniProt Q12809); assay: Binding, potassium channel (hERG); conditions: 100 µM; human recombinant (HEK-293 cells)
T4 construct: Eurofins (Poitiers, France), contract assay
Description: as §1, §2, §3, §4, §5, §6, §7, §8, §9

[8] = Metabolic stability in human liver microsomes; assay type: in vitro ADME; conditions: 120 min incubation with HLMs
Text: Human liver microsomes (HLMs) were used for metabolic stability determination. Moreover, the most probable phase I reactions and structures of metabolites were proposed according to ion fragment analyses with the in silico support of MetaSite 6.0.1 software. […] On the other hand, an excellent metabolic stability of compound 24 was observed. Less than 4% of this derivative was converted into double-hydroxylated metabolite M1 (Figures S3, S4, and S7, Supplementary Materials). Finally, two monohydroxylated metabolites (M1, M2) were found in the reaction mixture with HLMs and 30, and around 17% of this compound was metabolized (Figures S5–S7, Supplementary Materials).
These assays were performed on human liver microsomes (HLMs), purchased from Sigma-Aldrich (St. Louis, MO, USA), according to [14].

[9] = target: CYP2C9 (Homo sapiens, UniProt P11712); assay: Luminescent CYP2C9 P450-Glo assay; conditions: 10 and 25 µM
[10] = Rotarod test for acute neurological toxicity; conditions: mouse, in vivo, ip
[11] = system: motor coordination of mice; assay: Rotarod test for acute neurological toxicity; conditions: for Rotarod test, number of mice / number of mice tested: i.p., 100 mg/kg, 0.5 h
[12] = Parallel artificial membrane permeability assay (PAMPA)
Description: Passive diffusion was tested in the parallel artificial membrane permeability assay (PAMPA) and expressed as the permeability coefficient (Pe). A highly permeable compound, caffeine (CFN), and a poorly permeable compound, norfloxacin (NFX), were used as the references.
Precoated PAMPA Plate System Gentest™ was provided by Corning, (Tewksbury, MA, USA).

[13] = read-out: MES test, number of mice protected / number of mice tested (converted)

T1 sequence (P22002 whole entry): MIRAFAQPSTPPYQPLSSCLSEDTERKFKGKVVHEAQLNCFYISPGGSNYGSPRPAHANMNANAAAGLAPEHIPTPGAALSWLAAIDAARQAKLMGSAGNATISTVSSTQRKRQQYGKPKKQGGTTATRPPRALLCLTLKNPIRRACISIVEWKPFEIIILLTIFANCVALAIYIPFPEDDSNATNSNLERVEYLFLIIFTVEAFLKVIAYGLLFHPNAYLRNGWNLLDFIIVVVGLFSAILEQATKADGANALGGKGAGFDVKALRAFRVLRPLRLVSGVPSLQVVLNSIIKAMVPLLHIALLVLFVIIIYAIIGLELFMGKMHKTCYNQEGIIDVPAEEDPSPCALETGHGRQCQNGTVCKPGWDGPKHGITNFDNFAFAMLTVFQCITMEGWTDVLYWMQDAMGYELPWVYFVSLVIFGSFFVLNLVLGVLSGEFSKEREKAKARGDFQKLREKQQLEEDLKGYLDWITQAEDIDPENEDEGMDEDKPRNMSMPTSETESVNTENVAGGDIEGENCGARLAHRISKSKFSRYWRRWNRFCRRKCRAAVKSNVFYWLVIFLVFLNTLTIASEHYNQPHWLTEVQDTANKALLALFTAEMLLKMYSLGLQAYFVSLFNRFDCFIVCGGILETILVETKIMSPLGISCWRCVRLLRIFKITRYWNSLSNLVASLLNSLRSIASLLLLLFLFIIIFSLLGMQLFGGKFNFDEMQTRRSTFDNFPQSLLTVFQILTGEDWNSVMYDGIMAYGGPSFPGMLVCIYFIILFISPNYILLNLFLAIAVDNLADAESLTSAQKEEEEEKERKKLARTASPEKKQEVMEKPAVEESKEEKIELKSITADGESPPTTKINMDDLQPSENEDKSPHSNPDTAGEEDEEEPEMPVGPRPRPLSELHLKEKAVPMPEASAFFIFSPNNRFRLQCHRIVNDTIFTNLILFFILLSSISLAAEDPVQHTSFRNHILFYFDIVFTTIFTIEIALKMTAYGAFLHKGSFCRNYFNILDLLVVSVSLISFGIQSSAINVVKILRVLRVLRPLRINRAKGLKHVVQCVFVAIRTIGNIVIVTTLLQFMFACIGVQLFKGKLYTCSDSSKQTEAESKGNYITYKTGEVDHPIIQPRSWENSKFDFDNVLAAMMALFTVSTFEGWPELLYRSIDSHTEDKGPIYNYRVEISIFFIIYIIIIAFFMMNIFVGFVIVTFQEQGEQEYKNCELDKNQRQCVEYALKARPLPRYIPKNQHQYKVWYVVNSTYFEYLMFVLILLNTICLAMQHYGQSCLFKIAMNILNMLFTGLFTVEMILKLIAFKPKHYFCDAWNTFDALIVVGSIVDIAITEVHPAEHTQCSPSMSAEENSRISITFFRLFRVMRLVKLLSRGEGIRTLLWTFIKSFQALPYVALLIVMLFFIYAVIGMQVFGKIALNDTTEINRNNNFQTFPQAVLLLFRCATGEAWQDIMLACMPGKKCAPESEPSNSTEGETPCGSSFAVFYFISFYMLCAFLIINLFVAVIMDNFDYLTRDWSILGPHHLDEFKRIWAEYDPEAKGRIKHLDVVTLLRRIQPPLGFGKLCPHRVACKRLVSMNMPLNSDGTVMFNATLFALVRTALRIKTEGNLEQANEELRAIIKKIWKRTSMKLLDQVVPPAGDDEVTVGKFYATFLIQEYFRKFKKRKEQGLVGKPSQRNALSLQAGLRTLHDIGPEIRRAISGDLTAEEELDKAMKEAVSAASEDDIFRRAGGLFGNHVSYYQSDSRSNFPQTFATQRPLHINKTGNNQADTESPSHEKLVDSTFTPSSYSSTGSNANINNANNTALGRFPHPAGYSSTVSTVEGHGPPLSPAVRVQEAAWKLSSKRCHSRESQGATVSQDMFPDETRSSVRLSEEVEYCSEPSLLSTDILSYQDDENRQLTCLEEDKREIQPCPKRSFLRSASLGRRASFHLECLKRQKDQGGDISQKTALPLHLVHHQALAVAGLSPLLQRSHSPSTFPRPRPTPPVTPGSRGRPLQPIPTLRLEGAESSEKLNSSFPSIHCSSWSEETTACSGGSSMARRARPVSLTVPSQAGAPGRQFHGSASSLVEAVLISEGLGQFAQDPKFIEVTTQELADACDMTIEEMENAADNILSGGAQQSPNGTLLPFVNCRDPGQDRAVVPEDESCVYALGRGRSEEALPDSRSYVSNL
T1 sequence (P54287 whole entry partner): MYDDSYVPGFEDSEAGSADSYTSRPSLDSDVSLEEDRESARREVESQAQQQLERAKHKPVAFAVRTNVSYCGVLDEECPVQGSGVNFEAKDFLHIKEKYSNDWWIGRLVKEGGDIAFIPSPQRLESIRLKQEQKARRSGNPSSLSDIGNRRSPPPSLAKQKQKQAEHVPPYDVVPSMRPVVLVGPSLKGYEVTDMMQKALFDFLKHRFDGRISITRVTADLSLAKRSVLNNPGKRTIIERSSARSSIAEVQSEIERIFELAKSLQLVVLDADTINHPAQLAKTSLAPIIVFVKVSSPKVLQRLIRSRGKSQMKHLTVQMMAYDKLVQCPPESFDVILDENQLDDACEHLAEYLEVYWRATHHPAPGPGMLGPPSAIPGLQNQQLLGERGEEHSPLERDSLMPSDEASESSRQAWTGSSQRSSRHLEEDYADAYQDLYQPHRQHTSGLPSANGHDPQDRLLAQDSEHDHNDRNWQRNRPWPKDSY
T1 sequence (P54290 25-944 partner limits assumed): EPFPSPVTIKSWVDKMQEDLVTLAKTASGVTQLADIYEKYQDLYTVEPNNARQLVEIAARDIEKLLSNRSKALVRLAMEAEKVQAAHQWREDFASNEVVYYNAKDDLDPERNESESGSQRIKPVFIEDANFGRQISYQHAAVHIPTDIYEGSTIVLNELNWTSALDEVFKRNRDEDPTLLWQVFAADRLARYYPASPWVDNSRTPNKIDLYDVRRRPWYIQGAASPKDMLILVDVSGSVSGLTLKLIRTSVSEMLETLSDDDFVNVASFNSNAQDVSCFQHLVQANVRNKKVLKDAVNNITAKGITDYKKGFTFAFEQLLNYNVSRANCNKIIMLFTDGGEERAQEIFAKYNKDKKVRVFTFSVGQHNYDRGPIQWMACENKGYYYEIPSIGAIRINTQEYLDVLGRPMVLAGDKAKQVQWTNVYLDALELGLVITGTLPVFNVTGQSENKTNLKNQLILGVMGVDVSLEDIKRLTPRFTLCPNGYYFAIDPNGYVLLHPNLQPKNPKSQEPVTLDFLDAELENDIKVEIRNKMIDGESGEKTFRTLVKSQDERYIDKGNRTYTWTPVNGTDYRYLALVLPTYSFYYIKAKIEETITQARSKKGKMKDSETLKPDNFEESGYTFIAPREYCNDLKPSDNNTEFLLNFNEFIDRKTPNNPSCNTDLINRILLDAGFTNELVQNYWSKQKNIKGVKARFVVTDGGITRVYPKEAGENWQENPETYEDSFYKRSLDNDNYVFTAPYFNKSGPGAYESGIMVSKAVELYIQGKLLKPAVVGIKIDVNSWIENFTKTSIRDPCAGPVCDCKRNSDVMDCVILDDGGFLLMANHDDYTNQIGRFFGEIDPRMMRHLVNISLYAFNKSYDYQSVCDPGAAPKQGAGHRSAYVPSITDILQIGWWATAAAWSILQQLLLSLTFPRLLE
T1 sequence (P54290 945-1091 partner limits assumed): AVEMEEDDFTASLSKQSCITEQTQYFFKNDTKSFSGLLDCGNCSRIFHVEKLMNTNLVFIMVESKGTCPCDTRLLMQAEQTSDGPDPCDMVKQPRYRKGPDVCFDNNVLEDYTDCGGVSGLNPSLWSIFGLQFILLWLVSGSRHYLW
CYP2C9, sequence (P11712 whole entry): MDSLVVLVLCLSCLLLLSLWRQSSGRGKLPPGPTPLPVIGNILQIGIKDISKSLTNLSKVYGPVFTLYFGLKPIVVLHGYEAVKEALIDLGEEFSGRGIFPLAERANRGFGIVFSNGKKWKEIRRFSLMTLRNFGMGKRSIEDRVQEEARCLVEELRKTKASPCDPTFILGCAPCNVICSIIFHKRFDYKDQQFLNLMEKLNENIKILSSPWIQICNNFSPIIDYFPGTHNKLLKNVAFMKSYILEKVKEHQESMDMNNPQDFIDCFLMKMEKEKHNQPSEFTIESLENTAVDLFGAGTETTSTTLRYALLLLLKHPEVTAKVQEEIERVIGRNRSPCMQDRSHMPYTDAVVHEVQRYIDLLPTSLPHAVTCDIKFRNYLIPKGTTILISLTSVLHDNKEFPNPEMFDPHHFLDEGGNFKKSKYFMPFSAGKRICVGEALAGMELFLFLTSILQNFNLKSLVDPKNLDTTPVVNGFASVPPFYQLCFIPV

O=C(Nc1ccccc1F)C(c1ccccc1)N1C(=O)CCC1=O (stereo not drawn) [Compound 4, 2-(2,5-Dioxopyrrolidin-1-yl)-N-(2-fluorophenyl)-2-phenylacetamide]
responders at 100 mg/kg [1, 13]: 100% | ED50 [1]: 73.2 mg/kg | responders at 100 mg/kg [2]: 25% | % Inhibition of Control Specific Binding, Na+ Channel (Site 2) (Antagonist Radioligand) [3]: 23.5% | inhibition [4]: 5% | inhibition [5]: 1.1% | inhibition [6]: 2.8% | % Inhibition of Control Specific Binding, Potassium Channel (hERG) [7]: 2.3% | parent compound remained in the reaction mixture [8]: 71.44% and 71.4% | melting point: 106.6 to 107.1 °C | effect on CYP2C9 activity [9]: blocked its activity | TD50 at 0.5 h [10]: > 300 mg/kg | impairment of motor coordination of mice ([11]; doses as high as 300 mg/kg): did not impair motor coordination | Rotarod test, number of mice / number of mice tested [11]: 0/4 | Papp [12]: 11.2 ± 0.7 ×10⁻⁶ cm/s

O=C(NCCc1cccc(OC(F)(F)F)c1)C(c1ccccc1)N1C(=O)CCC1=O (stereo not drawn) [Compound 30, 2-(2,5-Dioxopyrrolidin-1-yl)-2-phenyl-N-(3-(trifluoromethoxy)phenethyl)acetamide]
responders at 100 mg/kg ([1]; groups of four, read-out: protection in the MES test): 100% | responders at 100 mg/kg [1, 13]: 100% | ED50 [1]: 45.6 mg/kg | responders at 100 mg/kg [2]: 75% | ED50 ([2]; at TPE (0.5 h; LTG 1.0 h), 95% confidence intervals in parentheses): 39.5 mg/kg | % Inhibition of Control Specific Binding, Na+ Channel (Site 2) (Antagonist Radioligand) [3]: 15.8% | binding to voltage-gated calcium channels Cav1.2 ([4]; concentration of 10 µM): moderate binding | inhibition [4]: 47.6% | inhibition [5]: 4% | inhibition [6]: 0.3% | % Inhibition of Control Specific Binding, Potassium Channel (hERG) [7]: 1.7% | compound converted into metabolites / metabolized [8]: around 17% | parent compound remained in the reaction mixture [8]: 83.39% | melting point: 113.3 to 114.2 °C | effect on CYP2C9 activity [9]: blocked its activity | TD50 at 0.5 h [10]: 162 mg/kg | Rotarod test, number of mice / number of mice tested [11]: 0/4 | Papp [12]: 13.2 ± 1.5 ×10⁻⁶ cm/s

Reference: publication PMC7699745, “The Search for New Anticonvulsants in a Group of (2,5-Dioxopyrrolidin-1-yl)(phenyl)Acetamides with Hybrid Structure—Synthesis and In Vivo/In Vitro Studies” (International Journal of Molecular Sciences, 2020)
